Assays:
Puccinia triticina = assay: Wheat brown rust (PUCCRT) disease control on wheat seedlings; format: in vivo; parameters: key to PUCCRT 3DC, HV activity at 100 ppm (% control rating) / PUCCRT disease control, 3DC / PUCCRT 1DP disease control rating, HV activity / PUCCRT 3DC disease control rating, HV activity / PUCCRT 3DC, LV activity at 125.1 g/H (% Control rating) / PUCCRT 1DP, LV activity at 125.1 g/H (% Control rating) / PUCCRT 3DC disease control rating, LV activity at 125.1 g/H / PUCCRT 1DP disease control rating, LV activity at 125.1 g/H / PUCCRT 3DC disease control rating, HV activity at 100 ppm / PUCCRT 1DP disease control rating, HV activity at 100 ppm / HV activity at 100 ppm PUCCRT 3DC (disease control rating) / LV activity at 125.1 g/H PUCCRT 1DP (disease control rating) / LV activity at 125.1 g/H PUCCRT 3DC (disease control rating): A: > 80; B: ≤ 80; C: Not Tested; D: No Activity Observed in the Reported Assay; conditions: wheat brown rust; for PUCCRT 1DP disease control rating, HV activity / PUCCRT 3DC disease control rating, HV activity: HV application at 100 ppm
Zymoseptoria tritici = assay: Leaf blotch of wheat (SEPTTR) disease control on wheat seedlings; format: in vivo; parameters: key to SEPTTR 1DP, HV activity at 100 ppm (% control rating) / SEPTTR 3DC, HV activity at 100 ppm (% control rating) / SEPTTR disease control, 1DP / SEPTTR disease control, 3DC / SEPTTR 1DP disease control rating, HV activity / SEPTTR 3DC disease control rating, HV activity / SEPTTR 3DC, LV activity at 125.1 g/H (% Control rating) / SEPTTR 1DP, LV activity at 125.1 g/H (% Control rating) / SEPTTR 1DP disease control rating, LV activity at 125.1 g/H / SEPTTR 3DC disease control rating, LV activity at 125.1 g/H / SEPTTR 3DC disease control rating, HV activity at 100 ppm / SEPTTR 1DP disease control rating, HV activity at 100 ppm / HV activity at 100 ppm SEPTTR 3DC (disease control rating) / HV activity at 100 ppm SEPTTR 1DP (disease control rating) / LV activity at 125.1 g/H SEPTTR 1DP (disease control rating) / LV activity at 125.1 g/H SEPTTR 3DC (disease control rating): A: > 80; B: ≤ 80; C: Not Tested; D: No Activity Observed in the Reported Assay; conditions: wheat leaf blotch; for SEPTTR 1DP disease control rating, HV activity / SEPTTR 3DC disease control rating, HV activity: HV application at 100 ppm
[1] = Low volume application at 125.1 g/H, 1 Day Protectant
[2] = Low volume application at 125.1 g/H, 3 Day Curative

SMILES	PUCCRT 1DP disease control rating, HV activity (Puccinia triticina; 1 Day Protectant)	PUCCRT 3DC disease control rating, HV activity (Puccinia triticina; 3 Day Curative)	SEPTTR 1DP disease control rating, HV activity (Zymoseptoria tritici; 1 Day Protectant)	SEPTTR 3DC disease control rating, HV activity (Zymoseptoria tritici; 3 Day Curative)	PUCCRT 1DP disease control rating, LV activity (Puccinia triticina; [1])	PUCCRT 3DC disease control rating, LV activity (Puccinia triticina; [2])	SEPTTR 1DP disease control rating, LV activity (Zymoseptoria tritici; [1])	SEPTTR 3DC disease control rating, LV activity (Zymoseptoria tritici; [2])
COc1ccnc(C(=O)N[C@@H](C)C(=O)O[C@@H](C)[C@H](Oc2ccc(Cl)cc2Cl)C(C)C)c1O [Cmpd 358]	B (≤ 80)	B (≤ 80)	B (≤ 80)	B (≤ 80)	–	–	–	–
COc1ccnc(C(=O)N[C@@H](C)C(=O)O[C@@H](C)[C@H](Oc2ccc(Cl)cc2)C(C)C)c1O [Cmpd 359]	A (> 80)	A (> 80)	A (> 80)	A (> 80)	–	–	–	–
CCC(CC)C(Oc1ccc(Cl)cc1Cl)C(C)OC(=O)C(C)NC(=O)c1nccc(OC)c1O (stereo not drawn) [Cmpd 381]	D	D	D	D	–	–	–	–
CCC(CC)C(Oc1cc(F)ccc1F)C(C)OC(=O)C(C)NC(=O)c1nccc(OC)c1O (stereo not drawn) [Cmpd 382]	A (> 80)	A (> 80)	D	B (≤ 80)	–	–	–	–
CCC(CC)C(Oc1cc(F)cc(Cl)c1)C(C)OC(=O)C(C)NC(=O)c1nccc(OC)c1O (stereo not drawn) [Cmpd 383]	A (> 80)	A (> 80)	B (≤ 80)	A (> 80)	–	–	–	–
CCC(CC)C(Oc1ccccc1Cl)C(C)OC(=O)C(C)NC(=O)c1nccc(OC)c1O (stereo not drawn) [Cmpd 384]	A (> 80)	A (> 80)	B (≤ 80)	A (> 80)	–	–	–	–
CCC(CC)C(Oc1ccc(C(F)(F)F)cc1)C(C)OC(=O)C(C)NC(=O)c1nccc(OC)c1O (stereo not drawn) [Cmpd 385]	B (≤ 80)	A (> 80)	D	D	–	–	–	–
CCC(CC)C(Oc1cccc(-c2ccccc2)c1)C(C)OC(=O)C(C)NC(=O)c1nccc(OC)c1O (stereo not drawn) [Cmpd 386]	B (≤ 80)	B (≤ 80)	D	D	–	–	–	–
CCC(CC)C(Oc1ccc(-c2ccccc2)cc1)C(C)OC(=O)C(C)NC(=O)c1nccc(OC)c1O (stereo not drawn) [Cmpd 387]	B (≤ 80)	D	D	D	–	–	–	–
COc1ccnc(C(=O)NC(C)C(=O)OC(C)C(Oc2ccc(-c3ccccc3)cc2)C(C)C)c1O (stereo not drawn) [Cmpd 388]	A (> 80)	B (≤ 80)	A (> 80)	B (≤ 80)	–	–	–	–
COc1ccnc(C(=O)NC(C)C(=O)OC(C)C(Oc2cccc(-c3ccccc3)c2)C(C)C)c1O (stereo not drawn) [Cmpd 389]	A (> 80)	D	B (≤ 80)	B (≤ 80)	–	–	–	–
COc1ccnc(C(=O)NC(C)C(=O)OC(C)C(Oc2cccc(F)c2)C(C)C)c1O (stereo not drawn) [Cmpd 390]	A (> 80)	A (> 80)	B (≤ 80)	A (> 80)	–	–	–	–
COc1ccnc(C(=O)NC(C)C(=O)OC(C)C(Oc2ccc(F)cc2)C(C)C)c1O (stereo not drawn) [Cmpd 391]	A (> 80)	A (> 80)	A (> 80)	A (> 80)	–	–	–	–
COc1ccnc(C(=O)NC(C)C(=O)OC(C)C(Oc2cc(F)ccc2F)C(C)C)c1O (stereo not drawn) [Cmpd 392]	A (> 80)	A (> 80)	A (> 80)	A (> 80)	–	–	–	–
COc1ccnc(C(=O)NC(C)C(=O)OC(C)C(Oc2cc(F)cc(Cl)c2)C(C)C)c1O (stereo not drawn) [Cmpd 393]	A (> 80)	B (≤ 80)	B (≤ 80)	A (> 80)	–	–	–	–
COc1ccnc(C(=O)NC(C)C(=O)OC(C)C(Oc2ccc(C(F)(F)F)cc2)C(C)C)c1O (stereo not drawn) [Cmpd 394]	B (≤ 80)	B (≤ 80)	A (> 80)	B (≤ 80)	–	–	–	–
CCC(C)C(NC(=O)c1nccc(OC)c1O)C(=O)OC(C)C(Oc1cc(F)ccc1F)C(C)C (stereo not drawn) [Cmpd 395]	B (≤ 80)	D	B (≤ 80)	B (≤ 80)	–	–	–	–
CCC(C)C(NC(=O)c1nccc(OC)c1O)C(=O)OC(C)C(Oc1ccc(C(F)(F)F)cc1)C(C)C (stereo not drawn) [Cmpd 396]	B (≤ 80)	D	B (≤ 80)	B (≤ 80)	–	–	–	–
COc1ccnc(C(=O)NC(C)C(=O)OC(C)C(Oc2cccc3ccccc23)C(C)C)c1O (stereo not drawn) [Cmpd 397]	A (> 80)	A (> 80)	B (≤ 80)	B (≤ 80)	–	–	–	–
COc1ccnc(C(=O)NC(C)C(=O)OC(C)C(Oc2ccc3ccccc3c2)C(C)C)c1O (stereo not drawn) [Cmpd 398]	A (> 80)	B (≤ 80)	D	B (≤ 80)	–	–	–	–
COc1ccnc(C(=O)NC(C)C(=O)OC(C)C(OC(=O)C(C)C)C(C)C)c1O (stereo not drawn) [Cmpd 399]	B (≤ 80)	D	B (≤ 80)	D	–	–	–	–
COc1ccnc(C(=O)NC(C(=O)OC(C)C(Oc2cccc3ccccc23)C(C)C)C(C)C)c1O (stereo not drawn) [Cmpd 400]	A (> 80)	B (≤ 80)	B (≤ 80)	B (≤ 80)	–	–	–	–
COc1ccnc(C(=O)NC(C(=O)OC(C)C(Oc2ccc3ccccc3c2)C(C)C)C(C)C)c1O (stereo not drawn) [Cmpd 401]	A (> 80)	B (≤ 80)	B (≤ 80)	B (≤ 80)	–	–	–	–
CC[C@H](OC)[C@@H](Oc1ccc(Cl)cc1Cl)[C@H](C)OC(=O)[C@H](C)NC(=O)c1nccc(OC)c1O [Cmpd 402]	B (≤ 80)	B (≤ 80)	B (≤ 80)	B (≤ 80)	–	–	–	–
CC[C@H](OC)[C@@H](Oc1ccccc1)[C@H](C)OC(=O)[C@H](C)NC(=O)c1nccc(OC)c1O [Cmpd 403]	–	–	–	–	A (> 80)	A (> 80)	B (≤ 80)	A (> 80)
CCC(CC)[C@@H](Oc1cccc(F)c1)[C@H](C)OC(=O)[C@@H](NC(=O)c1nccc(OC)c1O)C(C)C [Cmpd 404]	B (≤ 80)	D	A (> 80)	D	–	–	–	–
CCC(CC)[C@@H](Oc1ccc(F)cc1)[C@H](C)OC(=O)[C@@H](NC(=O)c1nccc(OC)c1O)C(C)C [Cmpd 405]	A (> 80)	B (≤ 80)	B (≤ 80)	B (≤ 80)	–	–	–	–

— patent US20180000085A1, “USE OF PICOLINAMIDE COMPOUNDS WITH FUNGICIDAL ACTIVITY” (DOW AGROSCIENCES LLC, priority 2014, published 2018)
